Data taken from the NIST ThermoML archive (doi:10.1021/je049595u).

What was measured:
[1] = molar heat capacity at saturation pressure
[2] = Molar enthalpy of transition or fusion; conditions: Crystal

Cc1ccc2ccccc2n1 [2-methylquinoline]
Conditions | mass density [kg/m3] | molar heat capacity [J/K/mol] | vapor or sublimation pressure [kPa]
319.99 K, Liquid, Inclined piston gauge | – | – | 0.0315
329.98 K, Liquid, Inclined piston gauge | – | – | 0.063
339.99 K, Liquid, Inclined piston gauge | – | – | 0.1198
349.98 K, Liquid, Inclined piston gauge | – | – | 0.2174
364.98 K, Liquid, Inclined piston gauge | – | – | 0.4962
374.98 K, Liquid, Inclined piston gauge | – | – | 0.8233
384.97 K, Liquid, Inclined piston gauge | – | – | 1.323
394.24 K, Liquid, Twin ebulliometer | – | – | 2
394.97 K, Liquid, Inclined piston gauge | – | – | 2.066
404.97 K, Liquid, Inclined piston gauge | – | – | 3.141
411.02 K, Liquid, Twin ebulliometer | – | – | 4
418.53 K, Liquid, Twin ebulliometer | – | – | 5.333
429.68 K, Liquid, Twin ebulliometer | – | – | 7.999
438.05 K, Liquid, Twin ebulliometer | – | – | 10.67
444.81 K, Liquid, Twin ebulliometer | – | – | 13.33
451.84 K, Liquid, Twin ebulliometer | – | – | 16.66
457.68 K, Liquid, Twin ebulliometer | – | – | 19.93
465.36 K, Liquid, Twin ebulliometer | – | – | 25.02
473.1 K, Liquid, Twin ebulliometer | – | – | 31.18
480.89 K, Liquid, Twin ebulliometer | – | – | 38.56
488.72 K, Liquid, Twin ebulliometer | – | – | 47.38
496.61 K, Liquid, Twin ebulliometer | – | – | 57.82
504.55 K, Liquid, Twin ebulliometer | – | – | 70.12
512.53 K, Liquid, Twin ebulliometer | – | – | 84.53
520.57 K, Liquid, Twin ebulliometer | – | – | 101.33
528.66 K, Liquid, Twin ebulliometer | – | – | 120.79
536.8 K, Liquid, Twin ebulliometer | – | – | 143.25
544.98 K, Liquid, Twin ebulliometer | – | – | 169.02
553.22 K, Liquid, Twin ebulliometer | – | – | 198.49
561.5 K, Liquid, Twin ebulliometer | – | – | 232.02
569.83 K, Liquid, Twin ebulliometer | – | – | 270.02
762.9 K, Gas, Measured as part of TC determination by DSC | 163.3 | – | –
773.9 K, Liquid, Measured as part of TC determination by DSC | 410.8 | – | –
775.2 K, Gas, Measured as part of TC determination by DSC | 236.6 | – | –
775.9 K, Liquid, Measured as part of TC determination by DSC | 355.4 | – | –
777.9 K, Gas, Measured as part of TC determination by DSC | 292.9 | – | –
[1], 460 K, Liquid | – | 291.16 | –
[1], 480 K, Liquid | – | 299.73 | –
[1], 500 K, Liquid | – | 308.3 | –
[1], 520 K, Liquid | – | 316.87 | –
[1], 540 K, Liquid | – | 325.39 | –
[1], 560 K, Liquid | – | 333.78 | –
[1], 580 K, Liquid | – | 341.97 | –
[1], 600 K, Liquid | – | 349.93 | –
[1], 620 K, Liquid | – | 357.61 | –
[1], 640 K, Liquid | – | 365.01 | –
[1], 660 K, Liquid | – | 372.23 | –
[1], 680 K, Liquid | – | 379.58 | –
[1], 700 K, Liquid | – | 387.75 | –

Conditions | Critical temperature, Liquid [K] | mass density, 323.14 K [kg/m3] | mass density, 348.14 K [kg/m3] | mass density, 373.12 K [kg/m3] | mass density, 398.12 K [kg/m3] | mass density, 423.11 K [kg/m3] | mass density, 448.11 K [kg/m3] | mass density, 473.11 K [kg/m3] | mass density, 498.11 K [kg/m3] | mass density, 523.11 K [kg/m3]
DTA | 778 | – | – | – | – | – | – | – | – | –
Liquid | – | 1035.2 | 1015.9 | 996.1 | 973.9 | 952.8 | 931.9 | 910.8 | 888.8 | 865.1

Conditions | Molar enthalpy of transition or fusion [kcal/mol] | Triple point temperature [K]
Crystal | – | 270.48
[2] | 2.992 | –

molar heat capacity [J/K/mol], [1], Vacuum adiabatic calorimetry
Conditions | Crystal | Liquid
5 K | 0.46 | –
5.565 K | 0.62 | –
6.404 K | 0.956 | –
7.354 K | 1.4 | –
8.354 K | 1.96 | –
9.372 K | 2.64 | –
10 K | 3.14 | –
10.39 K | 3.48 | –
11.53 K | 4.41 | –
12.8 K | 5.65 | –
14.21 K | 7.09 | –
15.75 K | 8.78 | –
17.46 K | 10.78 | –
19.36 K | 13.04 | –
20 K | 13.79 | –
21.49 K | 15.56 | –
23.83 K | 18.39 | –
26.43 K | 21.5 | –
29.31 K | 24.82 | –
30 K | 25.6 | –
32.52 K | 28.38 | –
36.12 K | 32.14 | –
39.68 K | 35.64 | –
40 K | 35.96 | –
43.66 K | 39.34 | –
48.56 K | 43.53 | –
50 K | 44.72 | –
52.54 K | 46.74 | –
53.49 K | 47.45 | –
53.98 K | 47.92 | –
57.46 K | 50.56 | –
58.64 K | 51.46 | –
60 K | 52.34 | –
60.03 K | 52.29 | –
63.2 K | 54.47 | –
64.47 K | 55.29 | –
69.56 K | 58.68 | –
70 K | 58.93 | –
76.52 K | 62.82 | –
80 K | 64.8 | –
84.08 K | 67.08 | –
89.02 K | 69.74 | –
90 K | 70.27 | –
92.31 K | 71.48 | –
97.21 K | 73.97 | –
100 K | 75.42 | –
101.28 K | 76.06 | –
106.32 K | 78.59 | –
110.83 K | 80.82 | –
116.09 K | 83.37 | –
120 K | 85.27 | –
125.97 K | 88.15 | –
135.92 K | 92.98 | –
140 K | 94.96 | –
145.89 K | 97.82 | –
155.92 K | 102.78 | –
160 K | 104.8 | –
166.03 K | 107.81 | –
176.22 K | 112.93 | –
180 K | 114.86 | –
187.41 K | 118.71 | –
190.57 K | 120.24 | –
199.53 K | 125.07 | –
200 K | 125.32 | –
205.56 K | 128.27 | –
211.51 K | 131.45 | –
220 K | 135.9 | –
222.27 K | 136.99 | –
223.47 K | 137.78 | –
223.49 K | 138.03 | –
235.04 K | 144.29 | –
235.46 K | 144.65 | –
239.04 K | 146.8 | –
240 K | 147.3 | –
241.52 K | 148.31 | –
247.49 K | 151.95 | –
250 K | – | 205.2
250.7 K | 154.08 | –
251.78 K | – | 205.82
256.02 K | – | 207.51
257.75 K | 159.11 | –
259.67 K | 160.66 | –
260 K | 160.12 | 209.03
261.22 K | 161.55 | –
263.55 K | – | 210.39
270.48 K | 167.45 | 212.97
272.7 K | – | 213.77
277.13 K | – | 215.45
278.52 K | – | 216.02
280 K | – | 216.58
285.4 K | – | 218.72
286.61 K | – | 219.19
294.19 K | – | 222.16
298.15 K | – | 223.78
300 K | – | 224.52
300.52 K | – | 224.72
310.63 K | – | 228.85
320 K | – | 232.73
327.13 K | – | 235.7
340 K | – | 241.04
343.64 K | – | 242.54
360 K | – | 249.4
360.17 K | – | 249.47
376.73 K | – | 256.39
380 K | – | 257.77
393.31 K | – | 263.29
400 K | – | 266.05
409.82 K | – | 270.1
420 K | – | 274.27
426.33 K | – | 276.86
439.48 K | – | 282.23
440 K | – | 282.48
